Experimental data reported in US6153653A, “Choline compositions and uses thereof” (Protarga, Inc., priority 1997, dated 2000).
Where “and” joins values, the source holds several entries; their conditions need not be identical. Equal entries are not always repeated. Entries after “also recorded” stand apart in the source; their conditions may differ.

Columns and labels:
Stability = format: physicochemical; conditions: for Stability on exposure in the air (in words): exposed in the air
Solubility = format: physicochemical
[1] = in vivo; cited from earlier work
[2] = system: animal models, clinical trials, models of aging; conditions: cited from earlier work
[3] = cited from earlier work
[4] = system: MCA occlusions of rat brain; assay: Middle cerebral artery occlusion-reperfusion stroke model, infarct by triphenyltetrazolium chloride staining; format: in vivo; conditions: for Infarct volume (% of control non-occluded side of brain), Average: vehicle average 35.5
Description: Two sets of experiments were carried out. In the first set, rats were administered with 50 mg/kg of DHA-choline i.p. at 30 minutes prior to occlusion of the middle cerebral artery of the left side of the brain using a standard highly reproducible animal model of stroke (Karpiak et al., J. Neurosci. Res. 30:512-520, 1991). Occlusion of the middle cerebral artery inhibits blood flow to a major portion of the left cortical and subcortical regions of the brain. After a two hour period, the occluded blood vessel was opened to allow reperfusion of the brain, and anesthesia was terminated. Each animal received additional doses of 50 mg/kg of DHA-choline 24 and 48 hours later.
The animals were sacrificed, perfused with formalin fixative, brains were sliced into seven 2 mm thick coronal sections, and stained with triphenyltetrazolium chloride (Watson et al., J. Neurosci. Methods 53:203-208, 1994). In this test, tissue that contains intact mitochondria stains red, whereas dead tissue with damaged mitochondria picks up no stain and remains white. Each unstained area on the left side of a section was measured and compared to the total area of the control non-occluded right side of the same section of the brain. The area of damaged (white) brain tissue cells was calculated as a percent of the intact right side of a section. […] (n=5 per group.)
In the second set of experiments (n=5), the identical occlusion-reperfusionrat model was used; only the time of administration of the drug was changed. DHA-choline was injected i.p. at a dose of 50 mg/kg at one hour after the beginning of the reperfusion, i.e., at three hours after the initiation of the stroke event. Controls (n=5) received an injection of the vehicle instead of the drug according to the same protocol.

[5] = system: locomotor activity of mice; assay: Locomotor activity (locomotor depression) study, Digiscan chambers; format: in vivo, male Swiss-Webster mice (Hsd:ND4)
Description: A dose-response study of DHA-choline-induced locomotor depression was conducted using 40 Digiscan locomotor activity testing chambers (40.5×40.5×30.5 cm) housed in sets of two, within sound attenuating chambers. A panel of infrared beams (16 beams) and corresponding photo detectors were located in the horizontal direction along the sides of each activity chamber. A 7.5W incandescent light above each chamber provided dim illumination. Fans provided an 80-dB ambient noise level within the chamber. Separate groups of 8 non-habituated male Swiss-Webster mice (Hsd:ND4, aged 2-3 mo.) were injected via the intraperitoneal route (i.p.) with either vehicle or DHA-choline (0.5, 2.5, 5, 10, 20 or 40 mg/kg), 20 minutes prior to locomotor activity testing. In all studies, the total distance (cm traversed in the horizontal plane) was measured for 2 hours within 10 min periods.
The period 0-30 min was selected for analysis of dose-response data because this is the time period in which DHA-choline produced maximal effects. The mean average distance per 10 min for this 30 min period were fit to a linear function of log, dose of the descending portion of the dose-effect curve (0.5 to 40 mg/kg dose range).

[6] = relative to tPA; cited from earlier work
[7] = 50 mg/kg i.p. at 30 min prior to occlusion

Compound: CC/C=C\C/C=C\C/C=C\C/C=C\C/C=C\C/C=C\CCC(=O)OCCN(C)C [2-dimethylaminoethyl docosahexaenoate]
- Stability on exposure in the air (in words) (Stability): turns dark when exposed in the air for several days
- Solubility (solvents, in words) (Solubility): soluble in EtOAc, Et2 O, CH2 Cl2, CHCl3, EtOH insoluble in H2 O

Compound: C[N+](C)(C)CCOP(=O)(O)OP(=O)([O-])OC[C@H]1O[C@@H](n2ccc(N)nc2=O)[C@H](O)[C@@H]1O [CDP-choline, Cytidine 5'-diphosphocholine]
- release on administration (in words) [1]: choline and cytidine are released into the systemic circulation
- neuroprotective effect; memory and learning deficits (in words) [2]: neuroprotective effect in animal models and in clinical trials; also recorded: improves memory and learning deficits in models of aging

Compound: CC/C=C\C/C=C\C/C=C\C/C=C\C/C=C\C/C=C\CCC(=O)O [DHA, cis-docosahexaenoic acid]
- crossing the blood-brain barrier (in words) [1]: unusually effective in crossing the blood-brain barrier
- Stability in the presence of oxygen (in words) [3]: can be unstable in the presence of oxygen

Compound: CC/C=C\C/C=C\C/C=C\C/C=C\C/C=C\C/C=C\CCC(=O)OCC[N+](C)(C)C [DHA-choline, docosahexaenoyl choline iodide]
- decrease in number of dead cells [4, 7]: about 50%
- Infarct volume (% of control non-occluded side of brain), individual animals ([4]; 50 mg/kg i.p. at 30 min prior to occlusion, Group No. 1 to 4): 22 % of control non-occluded side of brain and 19 % of control non-occluded side of brain and 16 % of control non-occluded side of brain and 20 % of control non-occluded side of brain
- Infarct volume (% of control non-occluded side of brain), Average [4, 7]: 19.3 % of control non-occluded side of brain
- Infarct volume (% of control non-occluded side of brain), individual animals ([4]; 50 mg/kg i.p. at 3 hours after occlusion, Group No. 1 to 5): 15 % of control non-occluded side of brain and 17 % of control non-occluded side of brain and 25 % of control non-occluded side of brain and 21 % of control non-occluded side of brain and 20 % of control non-occluded side of brain
- Infarct volume (% of control non-occluded side of brain), Average ([4]; 50 mg/kg i.p. at 3 hours after occlusion): 19.6 % of control non-occluded side of brain
- decrease in infarct volume ([4]; 50 mg/kg i.p. at three hours after initiation of stroke (one hour after beginning of reperfusion)): approximately 50%
- Stability on exposure in the air (in words) (Stability): exposed in the air for 5 days showed that the compound had not decomposed; also recorded: if it is exposed in the air for too long will decompose
- Stability on neutral alumina (in words) (Stability; purification on neutral alumina, 1H NMR): will result in other peaks on ^1 H NMR
- Solubility (solvents, in words) (Solubility): soluble in CH2 Cl2, CHCl3, EtOAc, EtOH insoluble in hexanes, Et2 O
- one-way analysis of variance on total distance/10 min, F(6,49) ([5]; 0-30 min, overall effect): 10.5
- time period in which maximal effects were produced ([5]; i.p., after 20 min pretreatment): 0 to 30 min

Compound: C[N+](C)(C)CCO [choline]
- crossing the blood-brain barrier (in words) [1]: cross the blood-brain barrier

Compound: Nc1ccn([C@@H]2O[C@H](CO)[C@@H](O)[C@H]2O)c(=O)n1 [cytidine]
- crossing the blood-brain barrier (in words) [1]: cross the blood-brain barrier

Compound: tPA conjugated to polyethylene glycol: conjugation of tPA to polyethylene glycol (EP-A304,311)
- clearance rate (in words) [6]: reduce the clearance rate of tPA
